Laboratory results from patent publication US5036077A, “1-(benzylpiperidino)propan-2-ol derivatives, their preparation, their use as antimicrobial agents and the products in which they are present” (Sanofi, priority 1987, dated 1991).
≈ marks a conversion by molar mass, not a printed value.

Tests used:
Format in all cases: cell-based
[1] = test system: Streptococcus faecalis CNCM 5855; test: Minimum bactericidal concentration, 30 min contact, strain 2; conditions: Streptococcus faecalis CNCM 5855, contact time 30 minutes, solubilizing agent given per product; for MBC: Enterococcus faecalis, CNCM5855, 0.5 h, read-out: MBC, strain 2
Experimental: (§1) A bacterial inoculum is brought into contact with different dilutions of the test product for a limited time of 30 minutes. When the contact time has ended, an aliquot of the bacterial suspension/product mixture is deposited on the surface of a gelose culture medium containing an agent for neutralizing the antibacterial activity of the product. The bactericidal concentration chosen is the minimum concentration of the product which is necessary to prevent bacterial growth. This concentration is expressed in μg/ml.
2 - Streptococcus faecalis CNCM 5855;
(§2) The strains are maintained on Tryptic Soy Agar (TSA) marketed by Difco.
(§3) After 24 hours of culture at 37° C., the microbial growth is harvested with the aid of glass beads and 10 ml of diluent containing 1 g of tryptone and 8.5 g of sodium chloride in 1000 ml of distilled water. The suspension formed is shaken and the percentage transmission of light at 620 nm is measured on a spectrophotometer:
(§4) The bacterial inoculum corresponds to a 1/20 dilution of this bacterial suspension.
(§5) Plates containing cups receive different dilutions of the test product. These dilutions of the test product are brought into contact with the different bacterial suspensions using a multiple-site inoculator. After a contact time of 30 minutes, aliquots are transferred by means of this inoculator to the surface of a gelose medium (TSA) placed in petri dishes and containing an agent for neutralizing the activity, namely 20 g of lubrol W, 2.5 g of Tween 80, 2.5 g of sodium thiosulfate and 1% of egg yolk in 1000 ml of TSA (Difco). A reference for the efficacy of the neutralizing agent is prepared for each test product by depositing an aliquot of the dilution of the test product on the surface of the culture medium. After drying, the corresponding inoculum is deposited in the same place. A reference inoculum is prepared on a gelose medium with and without neutralizing agent. The results are read off after 48 hours of incubation at 37° C.
(§6) They indicate the minimum bactericidal concentrations (MBC) for strains 1, 2, 3 and 4 and the minimum fungicidal concentrations (MFC) for strain 5.

[2] = test system: Escherichia coli CNCM 54127; test: Minimum bactericidal concentration, 30 min contact, strain 4; conditions: Escherichia coli CNCM 54127, contact time 30 minutes, solubilizing agent given per product; for MBC: CNCM54127, 0.5 h, read-out: MBC, strain 4
Experimental: as §1
4 - Escherichia coli CNCM 54127.
as §2, §3, §4, §5, §6

[3] = test system: Staphylococcus aureus CNCM 53154; test: Minimum bactericidal concentration, 30 min contact, strain 1; conditions: Staphylococcus aureus CNCM 53154, contact time 30 minutes, solubilizing agent (water, TEG or acetone) given per product; for MBC: CNCM53154, 0.5 h, read-out: MBC, strain 1
Experimental: as §1
1 - Staphylococcus aureus CNCM 53154;
as §2, §3, §4, §5, §6

[4] = test system: Pseudomonas aeruginosa CNCM A22; test: Minimum bactericidal concentration, 30 min contact, strain 3; conditions: Pseudomonas aeruginosa CNCM A22, contact time 30 minutes, solubilizing agent given per product; for MBC: CNCMA22, 0.5 h, read-out: MBC, strain 3
Experimental: as §1
3 - Pseudomonas aeruginosa CNCM A22;
as §2, §3, §4, §5, §6

[5] = test system: Candida albicans CNCM 1180; test: Minimum fungicidal concentration, strain 5; conditions: Candida albicans CNCM 1180, contact time 30 minutes, solubilizing agent given per product; for MFC: CNCM1180, 0.5 h, read-out: MFC, strain 5
Experimental: as §1, §5
The antifungal activity of the products according to the invention was also determined using the method described above. The representative strain of yeast selected for the study was Candida albicans CNCM 1180 (strain 5).
This is maintained on a gelose medium of Sabouraud Dextrose Agar, marketed by Difco. The technique is identical to that described for studying the antibacterial activity. After 48 hours of culture at 37° C., the microbial growth is harvested with the aid of glass beads and 5 ml of diluent containing 1 g of tryptone and 8.5 g of sodium chloride in 1000 ml of distilled water; a further 5 ml of the diluent are then added. In a spectrophotometer, this suspension gives a 2 to 3% transmission of light at 620 nm. The inoculum corresponds to a 1/10 dilution of this microbial suspension. A 1/100 dilution of this suspension, observed between a microscope slide and cover slip through a lens of magnification 40, should show 10 cells per field, which corresponds to 1 000 000 yeasts per ml.
as §6

Compound	MBC [1]	MBC [2]	MBC [3]	MBC [4]	MFC [5]	MBC, strain 2 [1]	MFC, strain 5 [5]	MBC, strain 1 [3]	MBC, strain 4 [2]	MBC, strain 3 [4]
OC(COc1ccc(Br)cc1)CN1CCC(Cc2ccccc2)CC1 (racemic) [SR 44251 A]	100 µg/mL (≈ 247 µM)	100 µg/mL (≈ 247 µM)	100 µg/mL (≈ 247 µM)	100 µg/mL (≈ 247 µM)	–	–	–	–	–	–
OC(COc1ccc(Cl)cc1Cl)CN1CCC(Cc2ccccc2)CC1 (racemic) [SR 44333 B, 1-(4-Benzylpiperidino)-3-(2,4-dichlorophenoxy)propan-2-ol methanesulfonate]	50 µg/mL	50 µg/mL	50 µg/mL	50 µg/mL	50 µg/mL	–	–	–	–	–
OC(COc1ccc(Cl)cc1)CN1CCC(Cc2ccccc2)CC1 (racemic) [SR 44334 A]	100 µg/mL (≈ 278 µM)	100 µg/mL (≈ 278 µM)	500 µg/mL (≈ 1390 µM)	100 µg/mL (≈ 278 µM)	–	–	–	–	–	–
OC(CSc1ccc(Cl)c(Cl)c1)CN1CCC(Cc2ccccc2)CC1 (racemic) [SR 44473 A]	50 µg/mL (≈ 122 µM)	50 µg/mL (≈ 122 µM)	1000 µg/mL (≈ 2440 µM)	50 µg/mL (≈ 122 µM)	50 µg/mL (≈ 122 µM)	–	–	–	–	–
OC(COc1cc(Cl)c(Cl)cc1Cl)CN1CCC(Cc2ccccc2)CC1 (racemic) [SR 44560 A]	50 µg/mL (≈ 117 µM)	5 µg/mL (≈ 11.7 µM)	10 µg/mL (≈ 23.3 µM)	50 µg/mL (≈ 117 µM)	50 µg/mL (≈ 117 µM)	–	–	–	–	–
OC(COc1cc(Cl)ccc1Oc1ccc(Cl)cc1Cl)CN1CCC(Cc2ccccc2)CC1 (racemic) [SR 44641 A]	10 µg/mL (≈ 19.2 µM)	5 µg/mL (≈ 9.6 µM)	50 µg/mL (≈ 96 µM)	10 µg/mL (≈ 19.2 µM)	50 µg/mL (≈ 96 µM)	–	–	–	–	–
OC(COc1cccc2ccccc12)CN1CCC(Cc2ccccc2)CC1 (racemic) [SR 44644 A]	50 µg/mL (≈ 133 µM)	50 µg/mL (≈ 133 µM)	50 µg/mL (≈ 133 µM)	50 µg/mL (≈ 133 µM)	50 µg/mL (≈ 133 µM)	–	–	–	–	–
CC(C)(C)c1ccc(OCC(O)CN2CCC(Cc3ccccc3)CC2)cc1 (racemic) [SR 44648 A]	200 µg/mL (≈ 524 µM)	50 µg/mL (≈ 131 µM)	200 µg/mL (≈ 524 µM)	50 µg/mL (≈ 131 µM)	200 µg/mL (≈ 524 µM)	–	–	–	–	–
OC(COc1cc(Br)c2ccccc2c1)CN1CCC(Cc2ccccc2)CC1 (racemic) [SR 44674 A]	10 µg/mL (≈ 22 µM)	10 µg/mL (≈ 22 µM)	10 µg/mL (≈ 22 µM)	10 µg/mL (≈ 22 µM)	200 µg/mL (≈ 440 µM)	–	–	–	–	–
OC(COc1ccccc1-c1ccccc1)CN1CCC(Cc2ccccc2)CC1 (racemic) [SR 44676 A]	50 µg/mL (≈ 125 µM)	10 µg/mL (≈ 24.9 µM)	200 µg/mL (≈ 498 µM)	10 µg/mL (≈ 24.9 µM)	50 µg/mL (≈ 125 µM)	–	–	–	–	–
OC(COc1ccc(-c2ccccc2)cc1)CN1CCC(Cc2ccccc2)CC1 (racemic) [SR 44715 A]	50 µg/mL (≈ 125 µM)	50 µg/mL (≈ 125 µM)	50 µg/mL (≈ 125 µM)	50 µg/mL (≈ 125 µM)	200 µg/mL (≈ 498 µM)	–	–	–	–	–
OC(COc1ccc(Cl)cc1Cc1ccccc1)CN1CCC(Cc2ccccc2)CC1 (racemic) [SR 44719 B]	5 µg/mL (≈ 11.1 µM)	5 µg/mL (≈ 11.1 µM)	10 µg/mL (≈ 22.2 µM)	10 µg/mL (≈ 22.2 µM)	10 µg/mL (≈ 22.2 µM)	–	–	–	–	–
OC(COc1ccc2ccccc2c1)CN1CCC(Cc2ccccc2)CC1 (racemic) [SR 44807 A]	1000 µg/mL (≈ 2660 µM)	200 µg/mL (≈ 533 µM)	1000 µg/mL (≈ 2660 µM)	200 µg/mL (≈ 533 µM)	1000 µg/mL (≈ 2660 µM)	–	–	–	–	–
OC(COc1ccc(F)cc1F)CN1CCC(Cc2ccccc2)CC1 (racemic) [SR 44971 A]	1000 µg/mL (≈ 2770 µM)	1000 µg/mL (≈ 2770 µM)	1000 µg/mL (≈ 2770 µM)	1000 µg/mL (≈ 2770 µM)	1000 µg/mL (≈ 2770 µM)	–	–	–	–	–
OC(COc1cccc2ccccc12)CN1CCC(Cc2ccc(Cl)cc2)CC1 (racemic) [SR 44999 A]	≤ 10 µg/mL	≤ 10 µg/mL	50 µg/mL (≈ 122 µM)	≤ 10 µg/mL	≤ 10 µg/mL	–	–	–	–	–
OC(CSc1ccc(Br)cc1)CN1CCC(Cc2ccc(Cl)cc2)CC1 (racemic) [SR 45076 A]	10 µg/mL (≈ 22 µM)	10 µg/mL (≈ 22 µM)	50 µg/mL (≈ 110 µM)	50 µg/mL (≈ 110 µM)	50 µg/mL (≈ 110 µM)	–	–	–	–	–
OC(CSc1ccc(Cl)c(Cl)c1)CN1CCC(Cc2ccc(Cl)cc2)CC1 (racemic) [SR 45077 A]	10 µg/mL (≈ 22.5 µM)	10 µg/mL (≈ 22.5 µM)	50 µg/mL (≈ 112 µM)	50 µg/mL (≈ 112 µM)	50 µg/mL (≈ 112 µM)	–	–	–	–	–
OC(CSc1cccc(Br)c1)CN1CCC(Cc2ccccc2)CC1 (racemic) [SR 45204 A]	> 200 µg/mL	50 µg/mL (≈ 119 µM)	> 200 µg/mL	50 µg/mL (≈ 119 µM)	> 200 µg/mL	–	–	–	–	–
OC(COc1ccc(Cl)c(Cl)c1)CN1CCC(Cc2ccccc2)CC1 (racemic) [SR 45551 A]	50 µg/mL (≈ 127 µM)	50 µg/mL (≈ 127 µM)	> 200 µg/mL	50 µg/mL (≈ 127 µM)	> 200 µg/mL	–	–	–	–	–
OC(COc1ccc(Cl)c(Cl)c1)CN1CCC(Cc2ccc(Cl)cc2)CC1 (racemic) [SR 45553 A]	50 µg/mL (≈ 117 µM)	10 µg/mL (≈ 23.3 µM)	10 µg/mL (≈ 23.3 µM)	50 µg/mL (≈ 117 µM)	50 µg/mL (≈ 117 µM)	–	–	–	–	–
OC(CSc1ccc(Cl)c(Cl)c1)CN1CCCC(Cc2ccccc2)C1 (single isomer, unassigned) [SR 45236 A]	50 µg/mL (≈ 122 µM)	50 µg/mL (≈ 122 µM)	> 200 µg/mL	50 µg/mL (≈ 122 µM)	> 200 µg/mL	–	–	–	–	–
OC(CSc1ccc(Cl)c(Cl)c1)CN1CCCC(Cc2ccccc2)C1 (single isomer, unassigned) [SR 45237 A]	–	–	–	–	–	50 µg/mL (≈ 122 µM)	> 200 µg/mL	> 200 µg/mL	–	–
Cl.OC(COc1ccc(Cl)cc1Cl)CN1CCC(Cc2ccccc2)CC1 (stereo not drawn) [SR 44333 A, 1-(4-Benzylpiperidino)-3-(2,4-dichlorophenoxy)propan-2-ol hydrochloride]	100 µg/mL	50 µg/mL	100 µg/mL	50 µg/mL	–	–	–	–	–	–
Cl.OC(CSc1ccc(Br)cc1)CN1CCC(Cc2ccccc2)CC1 (stereo not drawn) [SR 44444 A, 1-(4-Benzylpiperidino)-3-(4-bromophenylthio)propan-2-ol hydrochloride]	50 µg/mL	50 µg/mL	50 µg/mL	50 µg/mL	–	–	–	–	–	–
Cl.OC(COc1ccc2ccccc2c1Br)CN1CCC(Cc2ccccc2)CC1 (stereo not drawn) [SR 44716 A, 1-(4-Benzylpiperidino)-3-(1-bromonaphth-2-yloxy)propan-2-ol hydrochloride]	50 µg/mL	10 µg/mL	50 µg/mL	10 µg/mL	50 µg/mL	–	–	–	–	–
Cl.OC(COc1ccc(Cl)cc1Cc1ccccc1)CN1CCC(Cc2ccccc2)CC1 (stereo not drawn) [SR 44719 A, 3-(2-Benzyl-4-chlorophenoxy)-1-(4-benzylpiperidino)propan-2-ol hydrochloride]	10 µg/mL	5 µg/mL	10 µg/mL	10 µg/mL	50 µg/mL	–	–	–	–	–
CS(=O)(=O)O.OC(COc1ccc(Cl)cc1Cl)CN1CCCC(Cc2ccccc2)C1 (stereo not drawn) [SR 44957 A, 1-(3-Benzylpiperidino)-3-(2,4-dichlorophenoxy)propan-2-ol methanesulfonate]	–	–	–	–	–	≤ 10 µg/mL	50 µg/mL	50 µg/mL	≤ 10 µg/mL	≤ 10 µg/mL
